Source: patent publication US9233095B2, “Small molecule RNase inhibitors and methods of use” (University of Rochester, priority 2011, dated 2016)
≈ marks a conversion by molar mass, not a printed value. Where “and” joins values, the source holds several entries; their conditions need not be identical. Identical values can stand only once.

What was measured:
S. pyogenes = assay: CLSI broth microdilution MIC; type: cell-based; settings: Streptococcus pyogenes; S. pyogenes Isolate 1
Source text: (§1) In some examples, compounds can be further assayed using the Mueller Hinton (MH) broth antibacterial assay as specified by the Clinical and Laboratory Standards Institute MIC broth microdilution protocol (see Methods for Dilution Antimicrobial Susceptibility Tests for Bacteria That Grow Aerobically; Approved Standard, In The Clinical and Laboratory Standards Institute (CLSI, formerly NCCLS), 7th ed., January 2006, 26 (2), M7-A7; see also Performance Standards for Antimicrobial Susceptibility Testing; Eighteenth Informational Supplement, In The Clinical and Laboratory Standards Institute (CLSI, formerly NCCLS), January 2008, 28 (1), M100-S18).
(§2) With the exception of RN4220-derivatives, in vitro activities of RNPA1000 against bacteria were determined by the broth microdilution method according to the Clinical and Laboratory Standards Institute (CLSI) guidelines using cation adjusted Mueller-Hinton broth or MH broth supplemented with 5% lysed horse blood (for testing Streptotococcus spp.). Microtiter plates containing serial dilutions of RNPA1000 (0, 4, 8, 16, 32, 64, and 128 μg/ml) were inoculated with 10^5 colony forming units (CFU)/ml and incubated for 18 hr at 37° C. […] The MIC value for each S. aureus strain was determined to be the median score of replicate measurements (n=5). Wells containing concentrations of RNPA1000≧MIC were plated for minimal bactericidal measurement. Where possible, experiments with VRSA strains were performed in a laminar flow hood to minimize potential for equipment contamination. For RN4220 cells containing plasmid vector (pCN51), RnpA overproducing plasmid (pRNPA-S) or RnpA underproducing plasmid (pRNPA-A.S.) in vitro antimicrobial activity of RNPA1000 was performed by the microdilution method as described above, except that cells were grown in Tryptic Soy Broth medium supplemented with 2.5 μM CdCl2 and 0, 1, 2, 4, 8, 16, 32, 64, or 128 μg/ml RNPA1000. Time-kill assays were also performed to monitor the antimicrobial properties of RNPA1000 for S. aureus strain UAMS-1 in the absence and presence of 0.25, 0.5, 2, and 4 times the strain's MIC for oxacillin (1 μg/ml), rifampicin (0.5 μg/ml), vancomycin (2 μg/ml), or daptomycin (1 μg/ml). The indicated amount of RNPA1000 and/or commercial antibiotic were added to mid-exponential phase (2×10^8 cfu/ml) S. aureus strain UAMS-1 cells and incubated at 37° C. Aliquots were removed at 0, 2, 4, 8, and 24 hr post-antimicrobial challenge, serial diluted, and plated to enumerate resulting cfu/ml. All time-kill assays were repeated at least 3 times.

S. sanguis = assay: CLSI broth microdilution MIC; type: cell-based; settings: S. sanguis Isolate 1
Source text: as §1, §2

A. baumannii = assay: CLSI broth microdilution MIC; type: cell-based, Acinetobacter baumannii
Source text: as §1, §2

HepG2 human hepatocytes = assay: MTT cytotoxicity assay; type: cell-based; settings: for HepG2 cell toxicity: 24 hr exposure, any concentration tested (25, 50 μg/ml); for HepG2 cytotoxicity: 48 hr exposure
Description: It was then assessed whether RnpA-inhibitory agent concentrations corresponding to the effective bacterial MIC values (10-50 μg/ml) elicited human cell cytotoxicity. HepG2 human hepatocytes (10^5 cells) were seeded in individual wells of a microtitre plate and incubated for 16 hr at 37° C. with 5% carbon dioxide in Dulbecco's Modified Eagle Media supplemented with 10% fetal bovine serum. Cells were then challenged with Mitomycin C (5 μg/ml; positive control) or 0, 25, or 50 μg/ml RNPA1000 for either 24 or 48 hrs. Cell viability was measured spectrophotometrically (570 nm) following the addition and subsequent reduction of tetrazolium salt (MTT) within metabolically active cells, as per the manufacturer's recommendations (American Type Culture Collection; Manassas, Va.).

S. aureus RN4220 = assay: microdilution MIC of RnpA over- and under-producing cells; type: cell-based; settings: Staphylococcus aureus, 2.5 μM CdCl2
Description: as §2, with “The indicated amount of RNPA1000 and/or commercial antibiotic were added to mid-exponential phase (2×10^8 cfu/ml) S. aureus strain UAMS-1 cells and incubated at 37° C. Aliquots were removed at 0, 2, 4, 8, and 24 hr post-antimicrobial challenge, serial diluted, and plated to enumerate resulting cfu/ml. All time-kill assays were repeated at least 3 times.” left out
To assess whether the susceptibility of S. aureus to RNPA1000 was attributable to the inhibition of cellular RnpA, the mRNA turnover properties of S. aureus that were challenged with a sub-inhibitory concentration of RnpA-inhibitor (0.5× MIC) were directly measured. […] To more directly determine whether RNPA1000's antimicrobial effects are mediated through cellular inhibition of RnpA, the RNPA1000 susceptibility of S. aureus RnpA over- and under-producing cells was assessed. […]

S. aureus (MSSA) = assay: CLSI broth microdilution MIC; type: cell-based, Staphylococcus aureus; settings: Staphylococcus aureus, MSSA; strain UAMS-1
Source text: as §1, §2

S. aureus strain Smith = assay: acute lethal model of infection; type: in vivo, CD-1 mice; settings: for % Survival: 5 days, one value per experiment
Description: Because RNPA1000 was not toxic during short- and only mildly toxic during extended-HepG2 exposure, it could serve as an appropriate tool to assess whether RnpA-inhibitory molecules are efficacious in a systemic mouse infection model. […] RNPA1000 was solubilized in 1:1 mixture of DMSO and PEG400; Vancomycin was prepared in water. Animals (5/dose group) were administered 16, 64, and 256 mg/kg or 0.25, 1, 4, and 16 mg/kg of RNPA1000 or Vancomycin, respectively, at 30 min post infection by subcutaneous injection (0.2 ml). The percent surviving animals receiving no treatment, a single dose of Vancomycin, or RnpA-inhibitor was recorded daily over the course of the study (5 days).
Percent survival refers to a consensus of surviving animals following 5 days post-intraperitoneal S. aureus injection and RNPA1000 administration. The number in parentheses indicates the number of times the experiment was repeated. Each member of non-treated control mice expired within 24 hr bacterial inoculation (0 mg/kg). Vancomycin served as a positive control.

In the case of `Cc1cc(/C=C(/C#N)C(=O)Nc2cccc(Br)c2)c(C)n1-c1ccc(C(=O)O)cc1` [RNPA1000], the MIC (S. pyogenes) is reported as 8 µg/mL (≈ 17.2 µM), the MIC (S. sanguis) is reported as 16 µg/mL (≈ 34.5 µM) and the “effect of efflux inhibitor reserpine on RNPA1000 susceptibility” value (A. baumannii) is reported as “no effect”. The effect on growth (A. baumannii) was “did not affect”, the MIC (A. baumannii; A. baumannii Isolate 2) was greater than 64 µg/mL and the MIC (A. baumannii; A. baumannii Isolate 3) was greater than 64 µg/mL. It also gave an MIC (A. baumannii; A. baumannii Isolate 4) greater than 64 µg/mL, an MIC (A. baumannii; A. baumannii Isolate 5) greater than 64 µg/mL and an MIC (A. baumannii; A. baumannii Isolate 5 + reserpine) greater than 64 µg/mL. The MIC (A. baumannii; Acinetobacter baumannii) was greater than 64 µg/mL, the HepG2 cell toxicity (HepG2 human hepatocytes) was “not toxic” and the HepG2 cell toxicity (HepG2 human hepatocytes; listed as RNP1000) was “did not cause human HepG2 cell toxicity”. For the same compound, the HepG2 cytotoxicity (HepG2 human hepatocytes; 25 μg/ml) was “mildly toxic”, the HepG2 cytotoxicity (HepG2 human hepatocytes; 25 μg/ml, listed as RNP1000) was “mild cytotoxicity” and the HepG2 cytotoxicity (HepG2 human hepatocytes; higher concentrations than 25 μg/ml) was “increased toxicity”. For the same compound, the MIC (S. aureus RN4220; RN4220, RN4220 RnpA overproducing cells) was 32 µg/mL, the MIC (S. aureus RN4220; RN4220, RN4220 RnpA underproducing cells (antisense)) was 8 µg/mL and the MIC (S. aureus RN4220; RN4220, RN4220 vector containing cells (pCN51)) was 32 µg/mL. The MIC (S. aureus (MSSA)) was 26 µg/mL (≈ 56 µM), the “% Survival” value (S. aureus strain Smith; RNPA1000 16 mg/kg s.c. 30 min post infection) was 20; 20(2) % and the “% Survival” value (S. aureus strain Smith; RNPA1000 64 mg/kg s.c. 30 min post infection, 64 mg/kg) was 40%. The “% Survival” value (S. aureus strain Smith; RNPA1000 256 mg/kg s.c. 30 min post infection, 256 mg/kg) was 60% and 40% and the ED50 (S. aureus strain Smith; Staphylococcus aureus, in Mus musculus, sc, single dose, read-out: median effective dose (ED50)) was 64 to 256 mg/kg.
